# From patent publication US4051315A, “6"-Deoxykanamycin B and 6"-deoxytobramycin” (priority 1975, dated 1977)
# Like-named read-outs stand apart in the source and are kept apart here.
# Experiments:
# Format in all cases: cell-based
# [1] = tested on: S. aureus D137 PC, TC, EM-R; test: two-fold agar dilution MIC, Sa-9
# E. coli NR79/W677 KAT = test: two-fold agar dilution MIC, Ec-9; conditions: Escherichia coli, NR79/W677KAT
# P. stuartii A20894 GAT-2 = test: two-fold agar dilution MIC, Ps-2; conditions: Ps-2
# P. mirabilis A9554 CL-R = test: two-fold agar dilution MIC, Pm-1
# E. coli A20732 GAS = test: two-fold agar dilution MIC, Ec-72; conditions: Escherichia coli, A20732GAS
# [2] = tested on: K. pneumoniae 22-3038 NPT-2, GAS; test: two-fold agar dilution MIC, Kp-8
# S. marcescens A20019 = test: two-fold agar dilution MIC, Sm-1
# P. aeruginosa GN-315 KAT = test: two-fold agar dilution MIC, Pa-27
# S. aureus A20239 NPT-1,2 = test: two-fold agar dilution MIC, Sa-10
# E. cloacae A20364 NPT-1 = test: two-fold agar dilution MIC, E1-2; conditions: Enterobacter cloacae
# E. cloacae A21006 NPT-2 = test: two-fold agar dilution MIC, E1-12
# E. coli R5 KAT = test: two-fold agar dilution MIC, Ec-55
# P. aeruginosa GN-4925 = test: two-fold agar dilution MIC, Pa-45; conditions: Pseudomonas aeruginosa
# B. subtilis PCT-219 = test: two-fold agar dilution MIC, Bs-1; conditions: Bacillus subtilis
# [3] = tested on: a variety of gram-positive and gram-negative bacteria; test: antibacterial activity by two-fold agar dilution method, overall statement
# S. aureus D133 SH, Sth-R = test: two-fold agar dilution MIC, Sa-4
# E. coli P01495 CP.TC-R = test: two-fold agar dilution MIC, Ec-2; conditions: Escherichia coli, P01495CP.TCR
# [4] = tested on: P. aeruginosa #130 GAT-1, NPT; test: two-fold agar dilution MIC, Pa-16
# K. pneumoniae D11 = test: two-fold agar dilution MIC, Kp-1; conditions: Klebsiella pneumoniae
# E. coli JR88 CAT-1 = test: two-fold agar dilution MIC, Ec-62
# [5] = tested on: S. marcescens A21247 NPT-1, GAS; test: two-fold agar dilution MIC, Sm-16; conditions: Serratia marcescens
# S. aureus Smith = test: two-fold agar dilution MIC, Sa-2; conditions: Staphylococcus aureus
# [6] = tested on: P. aeruginosa A20896 GAT-3; test: two-fold agar dilution MIC, Pa-24
# [7] = tested on: P. aeruginosa A20601 GAT-1; test: two-fold agar dilution MIC, Pa-21; conditions: Pseudomonas aeruginosa
# E. coli A20107 NPT-2 = test: two-fold agar dilution MIC, Ec-49; conditions: Escherichia coli
# E. coli NIHJ = test: two-fold agar dilution MIC, Ec-1
# E. coli JR35/C600 NPT-1 = test: two-fold agar dilution MIC, Ec-10
# E. coli ML1630 NPT-1 = test: two-fold agar dilution MIC, Ec-5; conditions: Escherichia coli
# [8] = tested on: P. aeruginosa A20653 NPT-1,2; test: two-fold agar dilution MIC, Pa-12; conditions: Pseudomonas aeruginosa
# P. aeruginosa A9930 = test: two-fold agar dilution MIC, Pa-3; conditions: Pseudomonas aeruginosa
# [9] = tested on: E. coli JR66/W677 NPT-2, GAS; test: two-fold agar dilution MIC, Ec-53
# P. vulgaris A9436 = test: two-fold agar dilution MIC, Pv-1
# [10] = tested on: Pseudomonas sp. A20621 KAT, NPT-1,2; test: two-fold agar dilution MIC, Px-10
# [11] = Staphylococcus aureus, Run 1, read-out: MIC
smiles,measurement,setting,value
"CC1OC(OC2C(N)CC(N)C(OC3OC(CN)C(O)CC3N)C2O)C(O)C(N)C1O (centres unmarked) [compound 6, 6""-Deoxytobramycin]",MIC,[1]; Run 2,3.1 µg/mL
same,MIC,[1]; [11],3.1 µg/mL
same,MIC,E. coli NR79/W677 KAT; Run 1,1.6 µg/mL
same,MIC,E. coli NR79/W677 KAT; Run 2,0.8 µg/mL
same,MIC,"P. stuartii A20894 GAT-2; Providencia stuartii, A20894GAT2, Run 1, read-out: MIC",25 µg/mL
same,MIC,P. stuartii A20894 GAT-2; Run 2,25 µg/mL
same,MIC,"P. mirabilis A9554 CL-R; Proteus mirabilis, A9554CLR, Run 1, read-out: MIC",0.8 µg/mL
same,MIC,P. mirabilis A9554 CL-R; Run 2,0.8 µg/mL
same,MIC,E. coli A20732 GAS; Run 1,50 µg/mL
same,MIC,E. coli A20732 GAS; Run 2,25 µg/mL
same,MIC,"[2]; Klebsiella pneumoniae, Run 1, read-out: MIC",25 µg/mL
same,MIC,[2]; Run 2,25 µg/mL
same,MIC,S. marcescens A20019; Run 2,6.3 µg/mL
same,MIC,"S. marcescens A20019; Serratia marcescens, A20019, Run 1, read-out: MIC",6.3 µg/mL
same,MIC,"P. aeruginosa GN-315 KAT; Pseudomonas aeruginosa, GN315, Run 2, read-out: MIC",> 100 µg/mL
same,MIC,P. aeruginosa GN-315 KAT; Run 1,> 100 µg/mL
same,MIC,"S. aureus A20239 NPT-1,2; Run 2, Sa-10",0.8 µg/mL
same,MIC,"S. aureus A20239 NPT-1,2; Staphylococcus aureus",0.8 µg/mL
same,MIC,"E. cloacae A20364 NPT-1; A20364NPT1, Run 1",1.6 µg/mL
same,MIC,"E. cloacae A20364 NPT-1; A20364NPT1, Run 2",1.6 µg/mL
same,MIC,"E. cloacae A21006 NPT-2; Enterobacter cloacae, A21006NPT2",1.6 µg/mL
same,MIC,"E. cloacae A21006 NPT-2; Run 2, E1-12",1.6 µg/mL
same,MIC,"E. coli R5 KAT; Escherichia coli, R5KAT",0.4 µg/mL
same,MIC,"E. coli R5 KAT; Run 2, Ec-55",0.4 µg/mL
same,MIC,"P. aeruginosa GN-4925; GN4925, Run 1",100 µg/mL
same,MIC,"P. aeruginosa GN-4925; GN4925, Run 2",100 µg/mL
same,MIC,"B. subtilis PCT-219; PCT219, Run 1",< 0.05 µg/mL
same,MIC,"B. subtilis PCT-219; PCT219, Run 2",< 0.05 µg/mL
same,antibacterial activity,[3],excellent antibacterial activity
same,MIC,"S. aureus D133 SH, Sth-R; Run 2",1.6 µg/mL
same,MIC,"S. aureus D133 SH, Sth-R; [11]",1.6 µg/mL
same,MIC,E. coli P01495 CP.TC-R; Run 1,0.8 µg/mL
same,MIC,E. coli P01495 CP.TC-R; Run 2,0.8 µg/mL
same,MIC,"[4]; Pseudomonas aeruginosa, Run 1, read-out: MIC",6.3 µg/mL
same,MIC,[4]; Run 2,6.3 µg/mL
same,MIC,"K. pneumoniae D11; D11, Run 1",0.2 µg/mL
same,MIC,"K. pneumoniae D11; D11, Run 2",0.4 µg/mL
same,MIC,"E. coli JR88 CAT-1; Escherichia coli, JR88CAT1",3.1 µg/mL
same,MIC,"E. coli JR88 CAT-1; Run 2, Ec-62",3.1 µg/mL
same,MIC,[5]; Run 1,100 µg/mL
same,MIC,[5]; Run 2,50 µg/mL
same,MIC,S. aureus Smith; Run 1,0.2 µg/mL
same,MIC,S. aureus Smith; Run 2,0.1 µg/mL
same,MIC,"[6]; Pseudomonas aeruginosa, A20896GAT3, Run 1, read-out: MIC",> 100 µg/mL
same,MIC,[6]; Run 2,> 100 µg/mL
same,MIC,"[7]; A20601GAT1, Run 1",3.1 µg/mL
same,MIC,"[7]; A20601GAT1, Run 2",3.1 µg/mL
same,MIC,"E. coli A20107 NPT-2; A20107NPT2, Run 1",1.6 µg/mL
same,MIC,"E. coli A20107 NPT-2; A20107NPT2, Run 2",0.8 µg/mL
same,MIC,"E. coli NIHJ; Escherichia coli, Run 1, read-out: MIC",0.8 µg/mL
same,MIC,E. coli NIHJ; Run 2,0.8 µg/mL
same,MIC,"E. coli JR35/C600 NPT-1; Escherichia coli, JR35/C600NPT1",0.8 µg/mL
same,MIC,"E. coli JR35/C600 NPT-1; Run 2, Ec-10",0.8 µg/mL
same,MIC,"E. coli ML1630 NPT-1; ML1630NPT1, Run 1",1.6 µg/mL
same,MIC,"E. coli ML1630 NPT-1; ML1630NPT1, Run 2",0.8 µg/mL
same,MIC,[8]; Run 1,6.3 µg/mL
same,MIC,[8]; Run 2,3.1 µg/mL
same,MIC,"P. aeruginosa A9930; A9930, Run 1",0.4 µg/mL
same,MIC,"P. aeruginosa A9930; A9930, Run 2",0.4 µg/mL
same,MIC,[9]; Escherichia coli,25 µg/mL
same,MIC,"[9]; Run 2, Ec-53",25 µg/mL
same,MIC,"P. vulgaris A9436; Proteus vulgaris, A9436, Run 1, read-out: MIC",0.2 µg/mL
same,MIC,P. vulgaris A9436; Run 2,0.2 µg/mL
same,MIC,"[10]; Pseudomonas, Run 1, read-out: MIC",50 µg/mL
same,MIC,[10]; Run 2,50 µg/mL
